Test results published in patent US20190223483A1, “SENSORY MODIFIER COMPOUNDS” (CARGILL, INCORPORATED, priority 2017, published 2019).

Key:
Format in all cases: in vivo
[1] = Roundtable assessment of spikey/rounded sweetness quality (scale 0 to 3); design: key: 0=none; 1=mostly spikey, some rounded; 2=mostly rounded, some spikey; 3=rounded
Protocol: (§1) For other sweetness attributes, the solutions were tested by a panel of at least four individuals that are highly-trained in tasting steviol glycoside solutions. The highly-trained panelists used a roundtable methodology to assess each sweetness attribute. To test each solution, the highly-trained panelists dispensed approximately 2 mL of each solution into their own mouths by transfer pipet, dispersed the solution by moving their tongues, and recorded a value for the particular sweetness attribute being tested. Between tasting solutions, the panelists were able to cleanse their palates with water. For each sweetness attribute, the panelist agreed on a descriptive scale with relative intensities assigned for each sweetness attribute and then recorded the values for each sweetness attribute against this. For example, this roundtable assessment of sweetness linger assigned a scale of 0 to 6 with a score of 0 indicating no sweetness linger and a score of 6 indicating extreme sweetness linger. Roundtable assessment of sweetness linger assigned a scale of 0 to 6 with a score of 0 indicating no sweetness linger and a score of 6 indicating extreme sweetness linger (0=none, 1=trace, 2=slight, 3=moderate, 4=definite, 5=strong, 6=extreme). Roundtable assessment of rounded assigned a scale of 0 to 3 with a score of 0 indicating spikey and a score of 3 indicating desirable rounded (0=none, 1=mostly spikey, some rounded, 2=mostly rounded, some spikey, 3=rounded). Roundtable assessment of mouthfeel assigned a scale of 0 to 2 with a score of 0 indicating water and a score of 2 indicating syrupy (0=water, 1=sucrosey, 2=syrupy). Roundtable assessment of bitterness assigned a scale of 0 to 6 with a score of 0 indicating no bitterness and a score of 6 indicating extreme sweetness linger (0=none, 1=trace, 2=slight, 3=moderate, 4=definite, 5=strong, 6=extreme). Roundtable assessment of off tastes assigned a scale of 0 to 6 with a score of 0 indicating no bitterness and a score of 6 indicating extreme off tastes (0=none, 1=trace, 2=slight, 3=moderate, 4=definite, 5=strong, 6=extreme).
A series of assays were carried out to characterize a sweetness quality of a not preferred spikey quality (a zero value) to a more desirable rounded quality (a 3 value) of steviol glycoside compositions with sensory modifier compound using the roundtable methodology described in Example 1. Rounded quality has the sensory experience of being more like sucrose. […] Solutions of steviol glycosides and sensory modifier compound were prepared at increasing ratios of sensory modifier to steviol glycoside by weight. The steviol glycosides were RebA (4 glycoside groups), RebD (5 glycoside groups), RebM (6 glycoside groups), and OPS1-5(7 glycoside groups) and the sensory modifier compound was monocaffeoylquinic and dicaffeoylquinic acids prepared from yerba mate. […] The solutions were tested for spikey/rounded.

[2] = Roundtable assessment of bitterness (scale 0 to 6); design: key: 0 = none; 1 = trace/faint; 2 = slight; 3 = moderate; 4 = definite; 5 = strong; 6 = extreme
Protocol: as §1
(§2) A series of assays were carried out to characterize bitterness (0=none, 1=trace/faint, 2=slight, 3=moderate, 4=definite, 5=strong, 6=extreme) of steviol glycoside compositions with sensory modifier compound using the roundtable methodology described in Example 1. […] Solutions of steviol glycosides and sensory modifier compound were prepared at increasing ratios of sensory modifier to steviol glycoside by weight. The steviol glycosides were RebA (4 glycoside groups), RebD (5 glycoside groups), RebM (6 glycoside groups), and OPS1-5(7 glycoside groups) and the sensory modifier compound was monocaffeoylquinic and dicaffeoylquinic acids prepared from yerba mate. The concentration of steviol glycosides was 700 ppm in each solution. The solutions were tested for bitterness.

[3] = Roundtable assessment of off taste (scale 0 to 6); design: key to Off taste / off taste score: 0 = none; 1 = trace/faint; 2 = slight; 3 = moderate; 4 = definite; 5 = strong; 6 = extreme
Protocol: as §1
as §2, with “off taste” for “bitterness”, “off taste. Off taste included astringency, metallic, powdery, numbing, and vapory attributes.” for “bitterness.”

[4] = Roundtable assessment of botanical notes (scale 0 to 5); design: key: 0 = none; 1 = trace/faint; 2 = slight; 3 = moderate; 4 = definite; 5 = strong; 6 = extreme
Protocol: as §1
Roundtable assessment of botanical notes assigned a scale of 0 to 5 with a score of 0 indicating no botanical notes and a score of 5 indicating strong (0=none, 1=trace, 2=slight, 3=moderate, 4=definite, 5=strong).
A series of assays were carried out to characterize botanical notes of sensory modifier compound (0=none, 1=trace/faint, 2=slight, 3=moderate, 4=definite, 5=strong) in steviol glycoside compositions using the roundtable methodology described in Example 1. […] Solutions of steviol glycosides and sensory modifier compound were prepared at increasing ratios of sensory modifier to steviol glycoside by weight. […] The concentration of steviol glycosides was 700 ppm in each solution. The solutions were tested for botanical notes.

[5] = steviol glycoside 700 ppm + yerba mate mono/dicaffeoylquinic acids 270 ppm
[6] = steviol glycoside 700 ppm + yerba mate mono/dicaffeoylquinic acids 540 ppm
[7] = steviol glycoside 700 ppm + yerba mate mono/dicaffeoylquinic acids 810 ppm
[8] = steviol glycoside 700 ppm, sensory modifier 0 ppm
[9] = steviol glycoside 700 ppm + yerba mate mono/dicaffeoylquinic acids 630 ppm
[10] = steviol glycoside 700 ppm + yerba mate mono/dicaffeoylquinic acids 946 ppm
[11] = steviol glycoside 700 ppm + yerba mate mono/dicaffeoylquinic acids […]
[12] = RebA 700 ppm, higher concentrations of sensory modifier

For `C=C1C[C@@]23CC[C@H]4[C@@](C)(CCC[C@@]4(C)C(=O)O[C@@H]4O[C@H](CO)[C@@H](O)[C@H](O)[C@H]4O[C@@H]4O[C@H](CO)[C@@H](O)[C@H](O)[C@H]4O)[C@@H]2CC[C@]1(O[C@@H]1O[C@H](CO)[C@@H](O)[C@H](O[C@@H]2O[C@H](CO)[C@@H](O)[C@H](O)[C@H]2O)[C@H]1O[C@@H]1O[C@H](CO)[C@@H](O)[C@H](O)[C@H]1O)C3` [RebD, Rebaudioside D], the “Spikey/rounded (spikey = 0) (rounded = 3)” value (“Spikey/rounded” below) [1, 5] was 1, the “Spikey/rounded” value [1, 6] was 3 and the “Spikey/rounded” value [1, 7] was 3. The “Spikey/rounded” value [1, 8] was 2, the Bitterness [2, 5] was 0 and the Bitterness [2, 6] was 0. The Bitterness [2, 7] was 0, the Bitterness [2, 8] was 0 and the Off taste [3, 5] was 2. The Off taste [3, 8] was 2, the Botanical notes ([4]; Reb D 700 ppm, 0 ppm to about 500 ppm sensory modifier) was “no perceptible botanical notes” and the Botanical notes ([4]; Reb D 700 ppm, about 800 ppm sensory modifier) was “slight”. For the same compound, the Botanical notes [4, 5] was 0, the Botanical notes [4, 6] was 0 and the Botanical notes [4, 7] was 2. The Botanical notes [4, 8] was “Not observed”.

In the case of `C=C1C[C@@]23CC[C@H]4[C@@](C)(CCC[C@@]4(C)C(=O)O[C@@H]4O[C@H](CO)[C@@H](O)[C@H](O)[C@H]4O)[C@@H]2CC[C@]1(O[C@@H]1O[C@H](CO)[C@@H](O)[C@H](O[C@@H]2O[C@H](CO)[C@@H](O)[C@H](O)[C@H]2O)[C@H]1O[C@@H]1O[C@H](CO)[C@@H](O)[C@H](O)[C@H]1O)C3` [RebA, Rebaudioside A], the “Spikey/rounded” value [1, 9] is reported as “Not observed”, the “Spikey/rounded” value [1, 10] is reported as “Not observed” and the “Spikey/rounded” value [1, 11] is reported as “Not observed”. The “Spikey/rounded” value [1, 8] was 0, the bitterness score [2, 12] was 3 and the Bitterness [2, 9] was 3. It also gave a Bitterness [2, 10] of 3, a Bitterness [2, 11] of 5 and a Bitterness [2, 8] of 6. The off taste score [3, 12] was 2, the Off taste [3, 9] was 2 and the Off taste [3, 10] was 2. It also gave an Off taste [3, 11] of 2, an Off taste [3, 8] of 6 and a Botanical notes [4, 9] of 1. For the same compound, the Botanical notes [4, 10] was 3, the Botanical notes [4, 11] was “Not observed” and the Botanical notes [4, 8] was “Not observed”.
